# Reference: article PMC4370454, “The 4′-Hydroxyl Group of Resveratrol Is Functionally Important for Direct Activation of PPARα” (PLoS ONE, 2015)
# Biological target: T1, PDE (bovine brain-derived phosphodiesterase, majority PDE4 isozyme)
# T1 construct: bovine brain-derived PDE (Sigma), majority PDE4 isozyme
# Assay: PDE-Glo phosphodiesterase assay, […] cAMP substrate
# Type: biochemical, Bos taurus
row,IC50,SMILES
1,26.5 µM,"Oc1ccc(/N=N/c2ccccc2)cc1 [4-PAP, 4-phenylazophenol]"
2,27.8 µM,"Oc1ccc(/C=C/c2ccccc2)cc1 [T4HS, trans-4-hydroxystilbene]"

row,SMILES,IC50
1,Oc1ccc(/C=C/c2cc(O)cc(O)c2)cc1 [resveratrol],19 µM
